Laboratory results from patent US8258159B2, “Inhibitors of the α2β1/GPIa-IIa integrin” (The Trustees Of The University Of Pennsylvania, priority 2005, dated 2012).
*1 amine or outer side, *2 acyl side, *3 side chain or, on linkers, in order; H or OH if unused. Where a SMILES comes first, the peptide text is derived from it. Side-chain parts run from the residue outwards. [ ]: non-standard residue; d: D form. The star is where a group is joined. Cbz = O=C(OCc1ccccc1)*; Dap = NC[C@H](N)C(=O)O; CO = O=C([*:1])[*:2]; NHBn = c1ccc(CN*)cc1; Bz = O=C(c1ccccc1)*

Target: T1, α2β1 integrin (Homo sapiens, UniProt P05556+P17301)
T1 construct: endogenous in cells; host or cells: gel-filtered human platelets of a single donor
Assay: Platelet adhesion assay (human platelet adhesion to type I collagen)
Format: cell-based
Details: human platelet adhesion to type I (soluble, monomeric) collagen, static conditions; single donor; read-out: IC50
Procedure: The inhibitory strength of the compounds of the present disclosure was analyzed as against platelet adhesion to type I collagen. Ninety-six well flat bottom microtiter plates (Immulon 2, Dynatech Laboratories, Chantilly, Va.) were coated with collagen, purified human fibrinogen, or bovine serum albumin, each dissolved in 50 mM NaHCO3 buffer, pH 8.0, containing 150 mM NaCl as previously described. See Bennett J S, Chan C, Vilaire G, Mousa S A, DeGrado W F. Agonist-Activated αvβ3 on Platelets and Lymphocytes Binds to the Matrix Protein Osteopontin. J Biol Chem. 272, 8137-814) (1997). Unoccupied protein binding sites on the wells were blocked with 5 mg/ml bovine serum albumin dissolved in the same buffer. Human platelets were isolated from blood anticoagulated with 0.1 volume 3.8% sodium citrate by gel-filtration using a 4 mM HEPES buffer, pH 7.4, containing 135 mM NaCl, 2.7 mM KCl, 5.6 mM glucose, 3.3 mM NaH2PO4, 0.35 mg/ml bovine serum albumin and various concentrations of CaCl2 or MgCl2 according to the experiment. One hundred μl aliquots of the gel-filtered platelet suspension containing 1-2×10^8 platelets were added to the protein-coated wells in the absence or presence of a platelet agonist. Following an incubation for 30 min at 37° C. without agitation, the plates were washed 4 times with the Tris-buffered NaCl, containing 2 mM MgCl2, pH 7.4, and the number of adherent platelets measured using the colorimetric assay reported by Bellavite P, Andrioli G, Guzzo P, et al. A colorimetric method for the measurement of platelet adhesion in microtiter plates. Anal Biochem. 216, 444-450 (1994). Briefly, 150 μl of a 0.1 M citrate buffer, pH 5.4, containing 5 mM p-nitrophenyl phosphate and 0.1% Triton X-100 was added to the wells after washing. After an incubation for 60 min at room temperature in the absence of ambient light, color was developed by the addition of 100 μl of 2N NaOH and, using EL800 Universal Microplate Reader (Bio-Tek Instruments, Inc., Winooski, Vt.), read in microtiter plate reader at 405 nm.
The potencies of the compounds of the present disclosure were determined by testing the ability of a range of concentrations of each compound to inhibit human platelet adhesion to soluble collagen under static conditions. Owing to the fact that soluble collagen is a specific ligand for α2β1 integrin, this is an accepted method of assessing α2β1 inhibition on platelets.
IC50 values were determined by using the platelets of a single donor. In cases where multiple assays were performed, the reported results reflect the average IC50 value derived from the separate assays.

T1 sequence (P17301 30-1181): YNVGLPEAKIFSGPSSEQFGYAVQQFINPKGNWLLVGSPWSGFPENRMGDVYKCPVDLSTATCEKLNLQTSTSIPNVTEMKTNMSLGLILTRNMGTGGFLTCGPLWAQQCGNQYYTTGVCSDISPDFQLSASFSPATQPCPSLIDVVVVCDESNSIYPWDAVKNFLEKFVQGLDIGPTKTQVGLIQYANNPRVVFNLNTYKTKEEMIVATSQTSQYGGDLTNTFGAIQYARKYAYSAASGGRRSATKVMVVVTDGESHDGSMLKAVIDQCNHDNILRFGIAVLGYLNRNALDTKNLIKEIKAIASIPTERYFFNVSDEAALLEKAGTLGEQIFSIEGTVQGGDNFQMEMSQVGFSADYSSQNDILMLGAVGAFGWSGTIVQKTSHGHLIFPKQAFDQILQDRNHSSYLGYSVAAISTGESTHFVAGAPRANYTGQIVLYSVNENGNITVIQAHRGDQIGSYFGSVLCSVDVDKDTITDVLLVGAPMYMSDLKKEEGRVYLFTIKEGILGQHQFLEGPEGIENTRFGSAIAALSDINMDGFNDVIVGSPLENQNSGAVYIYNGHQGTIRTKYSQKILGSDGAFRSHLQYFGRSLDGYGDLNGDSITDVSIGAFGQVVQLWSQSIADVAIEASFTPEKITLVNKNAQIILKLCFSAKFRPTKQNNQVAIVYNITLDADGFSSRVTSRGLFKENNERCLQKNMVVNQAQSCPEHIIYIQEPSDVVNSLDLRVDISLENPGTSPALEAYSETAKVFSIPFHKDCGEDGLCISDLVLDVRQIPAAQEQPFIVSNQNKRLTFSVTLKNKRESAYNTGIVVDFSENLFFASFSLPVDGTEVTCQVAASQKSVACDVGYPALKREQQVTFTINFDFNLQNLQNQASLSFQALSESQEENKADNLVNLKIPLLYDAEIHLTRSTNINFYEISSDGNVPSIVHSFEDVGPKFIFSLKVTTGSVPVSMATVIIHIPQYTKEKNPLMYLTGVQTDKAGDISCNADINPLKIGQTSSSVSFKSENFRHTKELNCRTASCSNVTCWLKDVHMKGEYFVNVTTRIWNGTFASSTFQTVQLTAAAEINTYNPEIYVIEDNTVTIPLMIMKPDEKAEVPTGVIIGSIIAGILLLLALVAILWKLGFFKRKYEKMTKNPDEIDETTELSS
T1 sequence (P05556 21-798): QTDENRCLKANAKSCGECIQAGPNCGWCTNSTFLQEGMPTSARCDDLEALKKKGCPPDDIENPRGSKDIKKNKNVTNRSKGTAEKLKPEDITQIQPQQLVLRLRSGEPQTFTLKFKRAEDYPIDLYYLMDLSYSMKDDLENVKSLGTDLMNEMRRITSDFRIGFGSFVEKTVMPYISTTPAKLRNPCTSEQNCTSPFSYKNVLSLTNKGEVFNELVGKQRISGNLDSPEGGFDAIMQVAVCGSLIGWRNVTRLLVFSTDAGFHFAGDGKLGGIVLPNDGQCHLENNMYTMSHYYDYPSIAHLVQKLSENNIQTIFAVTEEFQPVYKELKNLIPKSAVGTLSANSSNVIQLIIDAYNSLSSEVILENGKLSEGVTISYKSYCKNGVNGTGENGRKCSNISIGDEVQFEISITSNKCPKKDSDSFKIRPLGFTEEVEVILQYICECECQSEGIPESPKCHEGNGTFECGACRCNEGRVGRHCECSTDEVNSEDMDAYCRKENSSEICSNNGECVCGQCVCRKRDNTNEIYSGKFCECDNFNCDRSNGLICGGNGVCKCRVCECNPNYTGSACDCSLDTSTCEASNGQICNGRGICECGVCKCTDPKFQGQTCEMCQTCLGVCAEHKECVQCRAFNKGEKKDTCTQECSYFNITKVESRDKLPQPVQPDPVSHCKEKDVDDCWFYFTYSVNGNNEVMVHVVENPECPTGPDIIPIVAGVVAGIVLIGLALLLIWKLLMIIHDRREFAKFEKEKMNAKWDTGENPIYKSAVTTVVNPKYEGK

Structure (SMILES)	IC50 [µM]
O=C(NCc1ccccc1)NC[C@H](NC(=O)[C@@H]1C=CCN1S(=O)(=O)c1ccccc1)C(=O)O (stereo in doubt) [Compound 52, 2-[(1-Benzenesulfonyl-2,5-dihydro-1H-pyrrole-2-carbonyl)-amino]-3-(3-benzyl-ureido)-propionic acid]	0.143
CC(C)(C)OC(=O)NC[C@H](NC(=O)[C@@H]1CCCN1S(=O)(=O)c1ccc([N+](=O)[O-])cc1)C(=O)O [Compound 1, 3-tert-Butoxycarbonylamino-2-{[1-(4-nitro-benzenesulfonyl)-pyrrolidine-2-carbonyl]-amino}-propionic acid]	2.62
O=C(NC[C@H](NC(=O)[C@@H]1CCCN1S(=O)(=O)c1ccc([N+](=O)[O-])cc1)C(=O)O)OCc1ccccc1 [Compound 2, 3-Benzyloxycarbonylamino-2-{[1-(4-nitro-benzenesulfonyl)-pyrrolidine-2-carbonyl]-amino}-propionic acid]	2.3
O=C(NC[C@H](NC(=O)[C@@H]1CCCN1S(=O)(=O)c1ccc([N+](=O)[O-])cc1)C(=O)O)c1ccccc1 [Compound 3, 3-Benzoylamino-2-{[1-(4-nitro-benzenesulfonyl)-pyrrolidine-2-carbony]-amino}-propionic acid]	2.31
O=C(CCc1ccccc1)NC[C@H](NC(=O)[C@@H]1CCCN1S(=O)(=O)c1ccc([N+](=O)[O-])cc1)C(=O)O [Compound 4, 2-{[1-(4-Nitro-benzenesulfonyl)-pyrrolidine-2-carbonyl]-amino}-3-(3-phenyl-propionylamino)-propionic acid]	4.75
O=C(NCc1ccccc1)NC[C@H](NC(=O)[C@@H]1CCCN1S(=O)(=O)c1ccc([N+](=O)[O-])cc1)C(=O)O [Compound 5, 3-(3-Benzyl-ureido)-2-{[1-(4-nitro-benzenesulfonyl)-pyrrolidine-2-carbonyl]-amino}-propionic acid]	0.105
CC(C)(C)OC(=O)CC[C@H](NC(=O)[C@@H]1CCCN1S(=O)(=O)c1ccc([N+](=O)[O-])cc1)C(=O)O [Compound 6, 2-{[1-(4-Nitro-benzenesulfonyl)-pyrrolidine-2-carbonyl]-amino}-pentanedioic acid 5-tert-butyl ester]	22.3
O=C(NCc1ccccc1Cl)NC[C@H](NC(=O)[C@@H]1CCCN1S(=O)(=O)c1ccc([N+](=O)[O-])cc1)C(=O)O [Compound 7, 3-[3-(2-Chloro-benzyl)-ureido]-2-{[1-(4-nitro-benzenesulfonyl)-pyrrolidine-2-carbonyl]-amino}-propionic acid]	0.985
O=C(NCc1ccc(Br)cc1)NC[C@H](NC(=O)[C@@H]1CCCN1S(=O)(=O)c1ccc([N+](=O)[O-])cc1)C(=O)O [Compound 8, 3-[3-(4-Bromo-benzyl)-ureido]-2-{[1-(4-nitro-benzenesulfonyl)-pyrrolidine-2-carbonyl]-amino}-propionic acid]	1.62
O=C(NC[C@H](NC(=O)[C@@H]1CCCN1S(=O)(=O)c1ccc([N+](=O)[O-])cc1)C(=O)O)Nc1ccccc1 [Compound 9, 2-{[1-(4-Nitro-benzenesulfonyl)-pyrrolidine-2-carbonyl]-amino}-3-(3-phenyl-ureido)-propionic acid]	3
O=C(NC[C@H](NC(=O)[C@@H]1CCCN1S(=O)(=O)c1ccc([N+](=O)[O-])cc1)C(=O)O)Nc1ccc([N+](=O)[O-])cc1 [Compound 10, 2-{[1-(4-Nitro-benzenesulfonyl)-pyrrolidine-2-carbonyl]-amino}-3-[3-(4-nitro-phenyl)-ureido]-propionic acid]	4.6
O=C(NC[C@H](NC(=O)[C@@H]1CCCN1S(=O)(=O)c1ccc([N+](=O)[O-])cc1)C(=O)O)Nc1ccc(-c2ccccc2)cc1 [Compound 11, 3-(3-Biphenyl-4-yl-ureido)-2-{[1-(4-nitro-benzenesulfonyl)-pyrrolidine-2-carbonyl]-amino}-propionic acid]	5.06
COc1ccc(CNC(=O)NC[C@H](NC(=O)[C@@H]2CCCN2S(=O)(=O)c2ccc([N+](=O)[O-])cc2)C(=O)O)cc1 [Compound 12, 3-[3-(4-Methoxy-benzyl)-ureido]-2-{[1-(4-nitro-benzenesulfonyl)-pyrrolidine-2-carbonyl]-amino}-propionic acid]	0.81
COc1ccccc1CNC(=O)NC[C@H](NC(=O)[C@@H]1CCCN1S(=O)(=O)c1ccc([N+](=O)[O-])cc1)C(=O)O [Compound 13, 3-[3-(2-Methoxy-benzyl)-ureido]-2-{[1-(4-nitro-benzenesulfonyl)-pyrrolidine-2-carbonyl]-amino}-propionic acid]	1.5
COc1cccc(CNC(=O)NC[C@H](NC(=O)[C@@H]2CCCN2S(=O)(=O)c2ccc([N+](=O)[O-])cc2)C(=O)O)c1 [Compound 14, 3-[3-(3-Methoxy-benzyl)-ureido]-2-{[1-(4-nitro-benzenesulfonyl)-pyrrolidine-2-carbonyl]-amino}-propionic acid]	0.79
O=C(NCc1ccc(-c2ccccc2)cc1)NC[C@H](NC(=O)[C@@H]1CCCN1S(=O)(=O)c1ccc([N+](=O)[O-])cc1)C(=O)O [Compound 15, 3-(3-Biphenyl-4-ylmethyl-ureido)-2-{[1-(4-nitro-benzenesulfonyl)-pyrrolidine-2-carbonyl]-amino}-propionic acid]	4.1
CCCNC(=O)NC[C@H](NC(=O)[C@@H]1CCCN1S(=O)(=O)c1ccc([N+](=O)[O-])cc1)C(=O)O [Compound 16, 2-{[1-(4-Nitro-benzenesulfonyl)-pyrrolidine-2-carbonyl]-amino}-3-(3-propyl-ureido)-propionic acid]	3.6
CC(C)(C)NC(=O)NC[C@H](NC(=O)[C@@H]1CCCN1S(=O)(=O)c1ccc([N+](=O)[O-])cc1)C(=O)O [Compound 17, 3-(3-tert-Butyl-ureido)-2-{[1-(4-nitro-benzenesulfonyl)-pyrrolidine-2-carbonyl]-amino}-propionic acid]	1.7
CC(C)(C)OC(=O)Nc1ccc(CNC(=O)NC[C@H](NC(=O)[C@@H]2CCCN2S(=O)(=O)c2ccc([N+](=O)[O-])cc2)C(=O)O)cc1 [Compound 18, 3-[3-(4-tert-Butoxycarbonylamino-benzyl)-ureido]-2-{[1-(4-nitro-benzenesulfonyl)-pyrrolidine-2-carbonyl]-amino}-propionic acid]	1.77
Nc1ccc(CNC(=O)NC[C@H](NC(=O)[C@@H]2CCCN2S(=O)(=O)c2ccc([N+](=O)[O-])cc2)C(=O)O)cc1 [Compound 19, 3-[3-(4-Amino-benzyl)-ureido]-2-{[1-(4-nitro-benzenesulfonyl)-pyrrolidine-2-carbonyl]-amino}-propionic acid]	0.46
CC(=O)Nc1ccc(S(=O)(=O)N2CCC[C@H]2C(=O)N[C@@H](CNC(=O)NCc2ccccc2)C(=O)O)cc1 [Compound 21, 2-{[1-(4-Acetylamino-benzenesulfonyl)-pyrrolidine-2-carbonyl]-amino}-3-(3-benzyl-ureido)-propionic acid]	0.131
O=C(NCc1ccccc1)NC[C@H](NC(=O)[C@@H]1CCCN1S(=O)(=O)Cc1ccccc1)C(=O)O [Compound 22, 3-(3-Benzyl-ureido)-2-[(1-phenylmethanesulfonyl-pyrrolidine-2-carbonyl)-amino]-propionic acid]	11.7
O=C(NCc1ccccc1)NC[C@H](NC(=O)[C@@H]1CCCN1C(=O)OCc1ccccc1)C(=O)O [Compound 23, 2-[2-(3-Benzyl-ureido)-1-carboxy-ethylcarbarmoyl]-pyrrolidine-1-carboxylic acid benzyl ester] (Cbz-Pro-[Dap]([CO-NHBn])-OH)	28
O=C(NCc1ccccc1)NC[C@H](NC(=O)[C@@H]1CCCN1S(=O)(=O)c1ccc(-c2ccccc2)cc1)C(=O)O [Compound 24, 3-(3-Benzyl-ureido)-2-{[1-(biphenyl-4-sulfonyl)-pyrrolidine-2-carbonyl]-amino}-propionic acid]	0.287
Nc1ccc(S(=O)(=O)N2CCC[C@H]2C(=O)N[C@H](CNC(=O)NCc2ccccc2)C(=O)O)cc1 [Compound 25, 2-{[1-(4-Amino-benzenesulfonyl)-pyrrolidine-2-carbonyl]-amino}-3-(3-benzyl-ureido)-propionic acid]	2.03
O=C(NCc1ccccc1)NC[C@H](NC(=O)[C@@H]1CCCN1C(=O)c1ccccc1)C(=O)O [Compound 26, 2-[(1-Benzoyl-pyrrolidine-2-carbonyl)-amino]-3-(3-benzyl-ureido)-propionic acid] (Bz-Pro-[Dap]([CO-NHBn])-OH)	1000
